The values below come from patent US20200093123A1, “INSECTICIDAL EMULSION” (EVOLVA SA, priority 2016, published 2020).

Each structure is given as a SMILES string. Read-outs that look alike come from different tables or passages of the source.

Series [1] relates to Aedes aegypti adult female mosquitoes. The series can be described thus: Arm over cage contact repellency, geraniol/co-solvent formulations (Example 18). Format: in vivo. The conditions noted are these: about 0.3 mL on collagen membrane aged one hour; 5 minute count; average of 4 replicates. Here is the method: Twenty five Aedes aegypti adult female mosquitoes were introduced into a 1 ft×1 ft×1 ft cage. The mosquitoes were starved for at least 2 hours before repellency testing. The test formulation or control substance (see “Treatments”) was applied at a rate of approximately 0.3 mL onto a dampened collagen membrane (2.5 inches by 6 inches) to mimic the effect of skin, and the membrane was allowed to age for one hour while resting on a damp cloth. An untreated, dampened collagen membrane was placed on a mesh opening at the top of the test cage, and a researcher's arm was suspended -1/4 inch above the membrane to act as an attractant. The numbers of landings and probings of the untreated membrane were counted during a 5 minute period, and these counts were used as the baseline level of activity for that specific replicate of mosquitoes. Immediately after the baseline count, an aged, treated membrane was placed on top of the cage, and the numbers of landings and probings of the treated membrane were counted during a 5 minute period for the same replicate of mosquitoes. […] Repellency was calculated as one minus the ratio of the average number of probings or landings using the treated membrane divided by the average number of probings or landings using the untreated membrane from the same cages over the same four replicates of mosquitoes. […]

The conditions of series [2]: partially soluble in water; cited from earlier work.
The conditions of series [3]: rats; cited from earlier work.
For another series, the system named is fire ants. The experiment in a line: Nootkatone residue on filter paper (Example 13). Type of series: in vivo, fire ant. How it is done: (§1) Method: Nootkatone was solubilized in ethanol to a concentration of 1% w/v. The nootkatone solution, or solvent (ethanol) alone as a negative control, was applied directly to filter paper using a micropipette, in an amount of 1 mL for a 9 cm filter paper disc. Filter papers were allowed to dry completely before being cut to the appropriate size prior to the start of the test. Treated and untreated filter papers were cut so that they covered the bottom of a suitable container for each test species (see Table No. 4, below). At each observation period, arthropods were classified as alive, knocked down (KD) or dead.
(§2) Observation Methods: • a. […] Definitions of “Alive”, “Knockdown (KD)”, and “Dead” are as defined above.

In the next series the test system is termites. The series can be described thus: Nootkatone residue on filter paper (Example 13). Type of series: in vivo, termite. Particulars: 1% w/v nootkatone in ethanol dried on filter paper; at 72 hours. Here is the method: as §1, §2
For series [4], the system named is yellow fever mosquitoes (Aedes aegypti) adults. The series can be described thus: whole plant or invertebrate. Type of series: in vivo. The conditions noted are these: 1% w/v nootkatone in ethanol dried on filter paper, mortality reached at 24 hours. Here is the method:
as §1, §2

For series [5], the system named is mosquito pupae. The series can be described thus: Mosquito pupae killing (Example 8, previous testing). Type of series: in vivo, Aedes aegypti or Anopheles quadrimaculatus. The conditions noted are these: 0.03% nootkatone/1% ethanol; within 24 hours. Here is the method: Pupae preparation. Eggs of Aedes aegypti or Anopheles quadrimaculatus were purchased from a commercial supplier. Eggs were hatched in sterile MilliQ water and fed with finely ground Tetramin® fish food until they developed into pupae.
Pupae experiments. Clean, glass 600 mL beakers were washed and thoroughly rinsed prior to use as test containers. On testing days, pupae were removed from dishes used to grow larvae. Replicates of 10 pupae each were randomly assigned to glass beakers in a volume of 100 mL of sterile MilliQ water, and a treatment (see “Treatments” below) is added. A minimum of three control replicates and 4 treated replicates were tested on more than one day. The beakers were then covered lightly with Kimwipes®, secured by rubber bands to prevent escape of adults. The beakers were observed after 24 hours, and the numbers of live pupae, dead pupae, live adults, and dead adults were recorded.
Treatments. An aliquot of 0.5-1 mL of formulations such as those used in Example 1 was added to each test beaker. Control beakers consist of 100 mL of sterile MilliQ water.

Another series concerns aphids. The series can be described thus: Nootkatone residue on filter paper (Example 13). Format: in vivo, aphid. The conditions noted are these: 1% w/v nootkatone in ethanol dried on filter paper; mortality reached at 24 hours. Here is the method: as §1, §2
Series [6] has as its system mosquito pupae. The series can be described thus: Prevention of adult emergence from pupae (Example 9, previous testing). Type of series: in vivo, Aedes aegypti or Anopheles quadrimaculatus. Particulars: 0.015% nootkatone/0.5% ethanol (v/v) in water for 48 hours. The source says: Pupae preparation. Eggs of Aedes aegypti or Anopheles quadrimaculatus were purchased from a commercial supplier. They were hatched in sterile MilliQ water and fed with finely ground TetraMin® fish food (fish meal, dried yeast, ground brown rice, shrimp meal, wheat gluten, feeding oat meal, fish oil, potato protein, dehulled soybean meal, soybean oil, algae meal, sorbitol, lecithin, monobasic calcium phosphate, ascorbic acid, yeast extract, inositol, niacin, L-ascorbyl-2-polyphosphate, riboflavin-5-phosphate, α-tocopherol-acetate, d-calcium pantothenate, thiamine mononitrate, pyridoxine hydrochloride, vitamin A palmitate, menadione sodium bisulfite complex, biotin, vitamin B12 supplement, cholcalciferol, manganese sulfate monohydrate, zinc sulfate monohydrate, ferrous sulfate monohydrate, cobalt acetate) until they developed into pupae.
Pupae experiments. Clean, glass 600 mL beakers were washed and thoroughly rinsed prior to use as test containers. On each of four testing days, pupae were removed from dishes used to grow larvae. Replicates of 10 pupae each were randomly assigned to glass beakers in a volume of 100 mL of sterile MilliQ water, and a treatment (see “Treatments” below) is added. The beakers are then covered lightly with Kimwipes® and secured by rubber bands to prevent escape of adults. […]
Treatments. […]

Series [7] relates to southern house mosquitoes (Culex quinquefasciatus). The experiment in a line: Nootkatone residue on filter paper (Example 13). Type of series: in vivo. The conditions noted are these: 24 h. How it is done:
as §1, §2

The test system of series [8] is common malaria mosquitoes (Anopheles quadrimaculatus). The experiment in a line: Nootkatone residue on filter paper (Example 13). Type of series: in vivo. The conditions noted are these: 24 h. How it is done: as §1, §2
The test system of series [9] is Asian tiger mosquitoes (Aedes albopictus). The experiment in a line: Nootkatone residue on filter paper (Example 13). Type of series: in vivo. Particulars: 24 h. Here is the method: as §1, §2
The test system of the next series is biting midges. The series can be described thus: Nootkatone residue on filter paper (Example 13). Type of series: in vivo, biting midge. The conditions noted are these: 1% w/v nootkatone in ethanol dried on filter paper; mortality reached at 24 hours. How it is done:
as §1, §2

Series [10] has as its system Anopheles gambiae Kisumu strain adults. Type of series: in vivo. Here is the method:
(§3) Method: Nootkatone was solubilized in acetone to a concentration of 1%, 0.607%, 0.368%, 0.224%, 0.136%, 0.082%, and 0.05%. 0.5 mL of solution was dispensed into a 5 cm diameter glass Petri dish for each replicate to be tested, using a fume hood and appropriate personal protective equipment. Liquid was dispensed to ensure that the entire base of the dish was covered with solution. Dishes were transferred to an orbital shaker set at a speed of 200 revolutions per minute. The dishes were shaken for 15 minutes to ensure even distribution on the surface of the plate. Control dishes were prepared in the same way using 0.5 mL of acetone without nootkatone. Dishes were allowed to dry for 4 hours before use. Dishes were stored at 4° C. until use. Groups of 10 adult female mosquitoes, 2-5 days old, were gently aspirated into a transfer pot system, and were then gently tapped out onto the surface of the treated or control Petri dishes. Although attempts are made to have groups of exactly 10 mosquitoes, group size could vary. Groups of more than 15 mosquitoes were excluded from testing, due to overcrowding. The opening to the dishes through which the mosquitoes were introduced was covered with parafilm to prevent escape. After 30 minutes of exposure to the Petri dishes, mosquitoes were transferred to paper cups for additional observation. They were supplied with 10% sucrose solution ad libitum. Three replicates, or 30 total adult female mosquitoes were tested for each concentration of nootkatone in acetone, and for the acetone-only controls. The mosquitoes tested were either the Aedes aegypti New Orleans strain, or Anopheles gambiae Kisumu strain.
as §2

Series [11] deals with Aedes aegypti New Orleans strain adults. Type of series: in vivo. How it is done: as §3, §2
Another series has as its system Aedes aegypti larvae. The experiment in a line: Duration of larvicidal protection in treated water (Example 7). Format: in vivo. Particulars: 0.03% nootkatone/1% ethanol in water; larvae added 3-7 days after the water was treated; within 24 hours.
The test system of the next series is deer ticks. The series can be described thus: Nootkatone residue on filter paper (Example 13). Type of series: in vivo, deer tick. The conditions noted are these: 1% w/v nootkatone in ethanol dried on filter paper; at 72 hours. Here is the method:
as §1, §2

Take `CCN(CC)C(=O)c1cccc(C)c1` [20% DEET in ethanol, N,N-Diethyl-meta-toluamide]: in series [1], the repellency against landings stood at 98% and the “repellency against probings (bites)” value worked out at 100%.

One may read the LD50 as the dose expected to kill half of the subjects tested. Consider `OCc1ccccc1` [benzyl alcohol], for which, in [2], the solubility in water is given as 4 g/100 ml. Moreover, the LD50 in [3] was 1200 mg/kg.

One may read the mortality as the percentage killed. Lower therefore signals a weak lethal effect. As to `C=C(C)[C@@H]1CCC2=CC(=O)C[C@@H](C)[C@]2(C)C1` [nootkatone], in the series on fire ants (1% nootkatone dried on filter paper, within 24 hours), the killed was determined as 100%. Besides, the Mortality % is listed as 100% with fire ants (1% w/v nootkatone in ethanol dried on filter paper, at 72 hours (table, no asterisk)); 90% with termites; 94% in the series with aphids; 100% in the series with biting midges; 98% in the series on deer ticks. Moreover, the mortality at 1 % strength in series [4] amounted to 100%; in series [7], 98%; in [8], 98%; in [9] it was 98%. For the same compound, in the series on mosquito pupae [5], the “pupae died, average” value is 94%. In addition, the “pupae died, one experiment” value in the series on mosquito pupae [5] worked out at 93%. Further, the “pupae died, second day of testing” value with mosquito pupae [5] worked out at 95%. The “surviving adults eclosed from pupae” value in the series on mosquito pupae [6] was “no surviving adults”. Further, in series [10] (residue of 0.082% nootkatone, 24 hours after treatment), the adults killed was 50%. In addition, the adults knocked down came out at 41% in series [10] (residue of 0.5 mL 0.082% nootkatone in acetone on 5 cm glass dish, within 30 minutes) and 47% in series [11] (residue of 0.5 mL 0.136% nootkatone in acetone on 5 cm glass dish, within 30 minutes). The mortality in series [10] (residue of 0.607% nootkatone, 24 hours after treatment) turned out to be 100%; in [10] (residue of 1% nootkatone, 24 hours after treatment) it was 100%; in series [11] (residue of 1% nootkatone in acetone, 30 minutes exposure, 24 hours after treatment), 89%. In series [11] (residue on glass dish, 30 minutes exposure, 24 hours after treatment), the “nootkatone concentration required to obtain significant mortality” value stood at 0.224%. Also, in the series on Aedes aegypti larvae, the larvae killed worked out at 100%.
